Source: patent US20230181905A1, “Systems, Devices, and Methods for Enhancing the Neuroprotective Effects of Non-Invasive Gamma Stimulation with Pharmacological Agents” (Massachusetts Institute of Technology, priority 2021, published 2023)

Tested on: amyloid
Assay: Amyloid immunohistochemistry in APP.PS1 mice
Format: in vivo, mouse
Conditions: 11-month-old APP.PS1 mice
Description: 11-month-old APP.PS1 mice were either a) untreated as control, b) treated with GENUS alone (40 Hz light flicker delivered for 1 hour/day for 30 days), or c) a combination of GENUS (40 Hz delivered for 1 hour/day for 30 days) and levetiracetam (10 mg/kg body weight, intraperitoneal injection daily for 30 days), an agent shown to offer benefits in AD model mice. After the treatment mice were transcardially perfused with ice cold phosphate buffered saline (PBS) followed by 4% paraformaldehyde in PBS. Forty micron brain slices were prepared, and immunohistochemistry was then performed to evaluate the amyloid levels.

CC[C@@H](C(N)=O)N1CCCC1=O [levetiracetam]
amyloid levels in the visual cortex relative to treatment with GENUS alone (levetiracetam 10 mg/kg i.p. daily 30 days co-administered with GENUS): higher
effect of GENUS on amyloid levels (levetiracetam 10 mg/kg i.p. daily 30 days co-administered with GENUS 1 hour/day): dampened or attenuated
